According to the supplement of paper PMC12463676, “Small-molecule dissolution of stress granules by redox modulation benefits ALS models” (Nature Chemical Biology, 2025):

Tests used:
[1] = compound: O=[As]([O-])(O)O.[K+] [potassium arsenate]; assay: thermal stability z-score vs DMSO; higher = more thermally stabilized by treatment; settings: HeLa; arsenate concentration 1 mM
Method: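 Cellular thermal proteome profiling in HeLa cells treated with 1 mM arsenate for 1 h (DMSO pretreatment), heated to ten temperatures (37-66.3 °C). Soluble protein was quantified by TMT mass spectrometry relative to DMSO controls; the thermal stability score was transformed to a z-score; mean of n = 3 experiments.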

[2] = compound: NC(=O)CCCCC1CCSS1 [lipoamide]; assay: as above; settings: HeLa, lipoamide concentration 100 µM
Method: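 Cellular thermal proteome profiling in HeLa cells. Cells were treated with 100 µM lipoamide for 1 h, with or without 1 mM arsenate for a further 1 h, then heated to ten temperatures (37-66.3 °C), and soluble protein was quantified by TMT mass spectrometry relative to 0.1% DMSO controls. The thermal stability score (sum of log2 fold changes minus the abundance score) was transformed to a z-score; mean of n = 3 experiments.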

[3] = arsenate co-treatment: 1 mM arsenate 1 h
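Further: each temperature applied for 3 min, abundance score taken as mean log2 fold change at the two lowest temperatures, z-score obtained by mean subtraction and division by SD.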

Chain of UniProt Q13643 (Q13643 whole entry): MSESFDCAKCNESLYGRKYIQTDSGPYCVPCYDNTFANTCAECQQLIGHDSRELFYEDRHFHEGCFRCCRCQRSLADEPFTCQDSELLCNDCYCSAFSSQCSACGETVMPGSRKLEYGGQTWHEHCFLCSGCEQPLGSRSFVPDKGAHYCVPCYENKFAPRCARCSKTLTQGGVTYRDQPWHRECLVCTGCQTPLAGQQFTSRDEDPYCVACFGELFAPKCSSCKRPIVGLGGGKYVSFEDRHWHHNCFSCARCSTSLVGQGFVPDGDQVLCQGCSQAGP
Chain of UniProt P10124 (P10124 whole entry): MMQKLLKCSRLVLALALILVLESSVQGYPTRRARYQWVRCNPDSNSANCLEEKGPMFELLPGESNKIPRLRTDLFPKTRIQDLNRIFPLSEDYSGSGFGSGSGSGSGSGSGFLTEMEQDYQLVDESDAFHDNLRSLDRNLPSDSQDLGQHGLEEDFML
Chain of UniProt Q15814 (Q15814 whole entry): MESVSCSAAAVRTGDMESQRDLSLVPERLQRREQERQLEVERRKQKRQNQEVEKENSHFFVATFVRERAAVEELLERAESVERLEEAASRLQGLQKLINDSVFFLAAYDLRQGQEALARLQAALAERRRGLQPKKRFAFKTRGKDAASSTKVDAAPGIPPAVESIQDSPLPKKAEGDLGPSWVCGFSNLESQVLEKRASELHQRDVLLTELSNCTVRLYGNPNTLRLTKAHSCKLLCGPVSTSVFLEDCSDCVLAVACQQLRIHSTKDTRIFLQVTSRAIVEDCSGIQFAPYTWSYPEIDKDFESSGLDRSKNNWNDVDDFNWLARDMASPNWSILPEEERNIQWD
Chain of UniProt Q86V21 (Q86V21 whole entry): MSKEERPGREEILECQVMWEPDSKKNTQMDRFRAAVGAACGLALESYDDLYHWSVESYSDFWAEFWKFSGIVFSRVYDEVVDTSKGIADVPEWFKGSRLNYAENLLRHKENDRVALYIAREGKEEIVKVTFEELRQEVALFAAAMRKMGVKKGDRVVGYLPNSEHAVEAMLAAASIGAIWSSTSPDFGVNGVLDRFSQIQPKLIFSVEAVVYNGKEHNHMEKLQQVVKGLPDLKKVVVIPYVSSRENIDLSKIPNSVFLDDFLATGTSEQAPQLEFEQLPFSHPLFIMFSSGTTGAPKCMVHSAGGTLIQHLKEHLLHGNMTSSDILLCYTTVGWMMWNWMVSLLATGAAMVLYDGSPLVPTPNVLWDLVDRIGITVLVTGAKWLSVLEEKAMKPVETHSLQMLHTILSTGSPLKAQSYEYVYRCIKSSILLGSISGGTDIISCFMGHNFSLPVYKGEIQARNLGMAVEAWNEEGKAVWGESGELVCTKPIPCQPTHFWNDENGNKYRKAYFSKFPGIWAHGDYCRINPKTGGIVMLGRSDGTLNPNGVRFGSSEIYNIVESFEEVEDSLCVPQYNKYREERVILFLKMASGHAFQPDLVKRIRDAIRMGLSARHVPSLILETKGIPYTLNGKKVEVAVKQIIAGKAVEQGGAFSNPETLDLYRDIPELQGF
Chain of UniProt P07437 (P07437 whole entry): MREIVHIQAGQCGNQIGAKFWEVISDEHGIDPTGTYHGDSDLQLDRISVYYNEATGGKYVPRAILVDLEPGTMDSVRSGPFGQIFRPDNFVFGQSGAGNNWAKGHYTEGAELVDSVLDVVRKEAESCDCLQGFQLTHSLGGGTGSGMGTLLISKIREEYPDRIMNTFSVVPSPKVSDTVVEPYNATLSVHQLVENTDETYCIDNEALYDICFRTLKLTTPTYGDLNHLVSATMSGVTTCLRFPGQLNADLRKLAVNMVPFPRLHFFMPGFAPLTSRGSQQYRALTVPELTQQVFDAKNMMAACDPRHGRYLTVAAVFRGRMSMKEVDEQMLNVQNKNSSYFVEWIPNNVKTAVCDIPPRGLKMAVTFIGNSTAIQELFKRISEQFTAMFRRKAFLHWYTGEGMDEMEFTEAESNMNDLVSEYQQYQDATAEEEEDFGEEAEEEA
Chain of UniProt P61923 (P61923 whole entry): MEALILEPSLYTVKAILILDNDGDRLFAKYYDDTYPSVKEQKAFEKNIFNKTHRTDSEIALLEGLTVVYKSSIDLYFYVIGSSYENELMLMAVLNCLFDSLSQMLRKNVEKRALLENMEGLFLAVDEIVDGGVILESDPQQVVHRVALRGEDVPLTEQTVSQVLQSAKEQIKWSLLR
Chain of UniProt Q8TAP6 (Q8TAP6 whole entry): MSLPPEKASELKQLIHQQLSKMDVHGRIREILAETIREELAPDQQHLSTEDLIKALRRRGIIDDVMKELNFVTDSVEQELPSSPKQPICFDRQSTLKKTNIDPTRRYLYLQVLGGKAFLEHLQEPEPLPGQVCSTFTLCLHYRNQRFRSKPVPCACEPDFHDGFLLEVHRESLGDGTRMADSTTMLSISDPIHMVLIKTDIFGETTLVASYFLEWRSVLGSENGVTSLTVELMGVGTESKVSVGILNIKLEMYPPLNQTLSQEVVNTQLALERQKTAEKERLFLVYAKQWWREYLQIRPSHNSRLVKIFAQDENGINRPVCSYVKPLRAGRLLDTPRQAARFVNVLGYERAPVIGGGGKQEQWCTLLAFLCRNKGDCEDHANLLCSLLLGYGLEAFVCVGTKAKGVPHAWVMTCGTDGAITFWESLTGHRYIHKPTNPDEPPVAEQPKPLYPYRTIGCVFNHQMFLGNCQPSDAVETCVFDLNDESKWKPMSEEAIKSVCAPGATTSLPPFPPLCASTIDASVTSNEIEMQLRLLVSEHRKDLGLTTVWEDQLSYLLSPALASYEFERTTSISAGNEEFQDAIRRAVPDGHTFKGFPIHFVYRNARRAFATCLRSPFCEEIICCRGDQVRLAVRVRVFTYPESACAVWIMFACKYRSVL
Chain of UniProt Q9HAD4 (Q9HAD4 whole entry): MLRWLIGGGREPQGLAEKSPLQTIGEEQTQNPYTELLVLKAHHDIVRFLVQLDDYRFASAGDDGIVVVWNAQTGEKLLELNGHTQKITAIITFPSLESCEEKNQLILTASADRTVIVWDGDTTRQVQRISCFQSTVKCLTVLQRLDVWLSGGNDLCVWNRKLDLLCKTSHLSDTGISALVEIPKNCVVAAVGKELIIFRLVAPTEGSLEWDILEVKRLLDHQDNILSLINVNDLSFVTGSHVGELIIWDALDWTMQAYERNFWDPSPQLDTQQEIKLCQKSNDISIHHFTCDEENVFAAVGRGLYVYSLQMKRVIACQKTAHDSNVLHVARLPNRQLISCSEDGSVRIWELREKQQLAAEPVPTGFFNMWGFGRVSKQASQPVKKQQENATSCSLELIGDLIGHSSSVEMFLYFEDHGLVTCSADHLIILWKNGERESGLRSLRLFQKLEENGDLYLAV
Chain of UniProt P35606 (P35606 whole entry): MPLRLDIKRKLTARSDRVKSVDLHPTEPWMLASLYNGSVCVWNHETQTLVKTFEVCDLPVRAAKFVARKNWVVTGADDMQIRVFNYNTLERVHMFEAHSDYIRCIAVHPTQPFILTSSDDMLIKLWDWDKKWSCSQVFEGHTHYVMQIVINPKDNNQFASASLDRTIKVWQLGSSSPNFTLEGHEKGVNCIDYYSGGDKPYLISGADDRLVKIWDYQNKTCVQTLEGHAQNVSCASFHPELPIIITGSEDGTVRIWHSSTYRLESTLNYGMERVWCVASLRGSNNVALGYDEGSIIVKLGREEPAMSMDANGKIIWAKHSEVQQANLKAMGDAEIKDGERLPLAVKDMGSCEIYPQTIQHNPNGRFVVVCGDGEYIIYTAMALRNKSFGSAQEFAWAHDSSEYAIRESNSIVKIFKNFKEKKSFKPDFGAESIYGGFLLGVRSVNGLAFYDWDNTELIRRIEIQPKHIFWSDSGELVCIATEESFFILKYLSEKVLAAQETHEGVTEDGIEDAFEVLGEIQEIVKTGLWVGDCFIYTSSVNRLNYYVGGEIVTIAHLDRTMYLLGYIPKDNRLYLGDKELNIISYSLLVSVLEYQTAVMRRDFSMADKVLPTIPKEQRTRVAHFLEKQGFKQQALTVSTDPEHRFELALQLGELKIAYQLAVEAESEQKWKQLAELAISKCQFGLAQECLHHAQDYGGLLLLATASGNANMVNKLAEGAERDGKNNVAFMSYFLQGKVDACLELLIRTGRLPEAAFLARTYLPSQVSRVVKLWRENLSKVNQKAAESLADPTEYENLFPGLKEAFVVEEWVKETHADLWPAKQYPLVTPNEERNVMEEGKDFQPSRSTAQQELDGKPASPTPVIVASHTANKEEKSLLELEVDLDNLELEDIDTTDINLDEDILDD
Chain of UniProt Q9BXS6 (Q9BXS6 whole entry): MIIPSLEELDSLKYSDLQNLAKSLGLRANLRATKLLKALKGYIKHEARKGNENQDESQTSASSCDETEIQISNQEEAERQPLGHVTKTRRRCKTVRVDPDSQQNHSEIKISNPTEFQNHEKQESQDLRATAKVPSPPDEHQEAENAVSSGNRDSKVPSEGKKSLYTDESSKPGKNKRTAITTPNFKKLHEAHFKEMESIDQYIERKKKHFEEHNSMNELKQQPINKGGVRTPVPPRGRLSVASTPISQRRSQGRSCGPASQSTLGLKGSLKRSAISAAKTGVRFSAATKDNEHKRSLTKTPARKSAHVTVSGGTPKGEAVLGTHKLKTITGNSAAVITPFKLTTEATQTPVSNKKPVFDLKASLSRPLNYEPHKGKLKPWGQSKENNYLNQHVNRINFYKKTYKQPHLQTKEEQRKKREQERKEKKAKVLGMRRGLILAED
Chain of UniProt Q9BSF4 (Q9BSF4 whole entry): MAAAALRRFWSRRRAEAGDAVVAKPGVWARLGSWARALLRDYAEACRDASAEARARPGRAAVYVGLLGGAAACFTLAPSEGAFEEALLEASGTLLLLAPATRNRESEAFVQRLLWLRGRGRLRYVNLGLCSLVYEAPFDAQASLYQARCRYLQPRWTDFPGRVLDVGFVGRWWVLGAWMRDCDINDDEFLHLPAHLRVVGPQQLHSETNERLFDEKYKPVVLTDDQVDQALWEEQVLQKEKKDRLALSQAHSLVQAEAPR
Chain of UniProt Q15819 (Q15819 whole entry): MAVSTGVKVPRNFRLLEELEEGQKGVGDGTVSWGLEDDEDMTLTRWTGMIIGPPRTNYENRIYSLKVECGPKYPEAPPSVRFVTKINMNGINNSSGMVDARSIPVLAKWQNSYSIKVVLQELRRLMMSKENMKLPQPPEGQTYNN

| Target | thermal stability z-score [1] | thermal stability z-score [2, 3] | thermal stability z-score ([2]; arsenate co-treatment: none) |
| --- | --- | --- | --- |
| GCDH (UniProt Q92947) | -0.202 | 0.711 | 0.198 |
| REEP6 (UniProt Q96HR9) | 0.0059 | 0.703 | 0.825 |
| C9ORF40 (UniProt Q8IXQ3) | 0.0372 | -0.129 | 0.33 |
| RBM17 (UniProt Q96I25) | 0.243 | 0.528 | 0.441 |
| CTSA (UniProt P10619) | -0.0364 | -0.264 | -0.283 |
| MAP4K3 (UniProt Q8IVH8) | 0.139 | 0.23 | -0.0792 |
| ERBB2IP (UniProt Q96RT1) | -1.94 | 0.354 | -0.307 |
| HSD17B10 (UniProt Q99714) | -1.29 | 0.921 | 0.151 |
| SRGN (UniProt P10124) | -0.673 | -0.234 | 0.0347 |
| MRPL32 (UniProt Q9BYC8) | -0.401 | -0.0526 | 0.482 |
| TUBB (UniProt P07437) | -0.425 | 0.525 | -0.284 |
| ABCG2 (UniProt Q9UNQ0) | 1.12 | 0.0159 | -0.208 |
| COPZ1 (UniProt P61923) | 0.734 | -0.374 | 0.0476 |
| AJUBA (UniProt Q96IF1) | -0.562 | -0.32 | -0.207 |
| NDUFAF6 (UniProt Q330K2) | 0.0349 | 0.234 | 0.0618 |
| HIF1AN (UniProt Q9NWT6) | 0.463 | -0.806 | -0.553 |
| ZRANB2 (UniProt O95218) | -0.286 | -0.755 | -0.097 |
| PHYHD1 (UniProt Q5SRE7) | 0.196 | -0.0705 | 0.173 |
| TDG (UniProt Q13569) | -0.322 | -0.0217 | -0.0438 |
| LTA4H (UniProt P09960) | -0.164 | 0.357 | 0.32 |
| TRMT1 (UniProt Q9NXH9) | -0.423 | 0.222 | -0.116 |
| TMED4 (UniProt Q7Z7H5) | 0.0343 | -0.192 | -0.249 |
| GNL1 (UniProt P36915) | 0.175 | -0.411 | -0.369 |
| EPS8L2 (UniProt Q9H6S3) | 1.1 | 0.124 | 0.0219 |

| Target | thermal stability z-score [1] | thermal stability z-score [2, 3] | thermal stability z-score ([2]; arsenate co-treatment: none) |
| --- | --- | --- | --- |
| GPD1L (UniProt Q8N335) | -0.935 | 0.106 | -0.108 |
| MED20 (UniProt Q9H944) | -0.226 | 0.506 | -0.154 |
| TSFM (UniProt P43897) | -0.0696 | -0.91 | -0.179 |
| COG6 (UniProt Q9Y2V7) | -0.012 | -0.00556 | -0.0575 |
| NUP85 (UniProt Q9BW27) | 0.613 | 0.16 | 0.113 |
| ZCCHC6 (UniProt Q5VYS8) | -0.0705 | -0.043 | -0.0119 |
| HSP90AA1 (UniProt P07900) | 0.428 | 0.0337 | 0.301 |
| GIT1 (UniProt Q9Y2X7) | -0.368 | 0.346 | -0.311 |
| NUSAP1 (UniProt Q9BXS6) | 0.758 | 0.43 | 0.187 |
| ASUN (UniProt Q9NVM9) | 0.906 | 0.368 | 0.404 |
| SAE1 (UniProt Q9UBE0) | -0.458 | -0.694 | -0.826 |
| NCBP1 (UniProt Q09161) | -0.0646 | 0.353 | 0.393 |
| UBQLN1 (UniProt Q9UMX0) | 0.778 | 2.04 | 2.04 |
| DDX55 (UniProt Q8NHQ9) | 0.0246 | 0.693 | 0.58 |
| COPB2 (UniProt P35606) | 0.238 | 0.165 | -0.0303 |
| ILVBL (UniProt A1L0T0) | 0.772 | 1.34 | 0.509 |
| CCDC97 (UniProt Q96F63) | -0.925 | -0.00687 | 0.225 |
| MTCL1 (UniProt Q9Y4B5) | -1.54 | -0.242 | 0.0775 |
| INPP4A (UniProt Q96PE3) | 0.221 | 0.395 | 0.319 |
| TTC37 (UniProt Q6PGP7) | -0.0411 | -0.601 | -0.234 |
| TRIM21 (UniProt P19474) | 0.307 | -0.677 | -0.149 |
| CMPK1 (UniProt P30085) | 2.02 | -0.127 | 0.136 |
| CEP76 (UniProt Q8TAP6) | -1.36 | -0.336 | 0.197 |
| C11ORF68 (UniProt Q9H3H3) | 0.538 | -0.438 | -0.551 |

| Target | thermal stability z-score [1] | thermal stability z-score [2, 3] | thermal stability z-score ([2]; arsenate co-treatment: none) |
| --- | --- | --- | --- |
| TIMM17A (UniProt Q99595) | 0.164 | 0.133 | -0.417 |
| CUL4A (UniProt Q13619) | -0.0896 | 0.0347 | -0.214 |
| CSTF2T (UniProt Q9H0L4) | 0.141 | 0.0672 | -0.0883 |
| NFKBIB (UniProt Q15653) | 0.948 | -0.344 | -0.271 |
| UBE2V2 (UniProt Q15819) | -0.0935 | 0.177 | -0.304 |
| HEXA (UniProt P06865) | -0.0764 | -0.146 | -0.412 |
| AACS (UniProt Q86V21) | 0.635 | -0.257 | -0.135 |
| ARHGAP10 (UniProt A1A4S6) | 0.226 | 0.133 | 0.268 |
| SNRPB2 (UniProt P08579) | -0.319 | 0.953 | 0.704 |
| SNRPA1 (UniProt P09661) | 0.474 | 1.91 | 1.08 |
| NOTCH2 (UniProt Q04721) | -0.309 | -1.45 | -1.57 |
| C19ORF52 (UniProt Q9BSF4) | 0.873 | 0.441 | 0.873 |
| USP8 (UniProt P40818) | 0.561 | -0.401 | -0.0464 |
| FHL3 (UniProt Q13643) | -3.01 | 0.648 | -0.254 |
| CELF1 (UniProt Q92879) | -0.593 | -1.1 | -0.66 |
| PCMT1 (UniProt P22061) | 0.245 | 0.993 | 0.908 |
| TBCC (UniProt Q15814) | -0.00724 | -0.35 | -0.196 |
| XPOT (UniProt O43592) | -0.212 | -0.645 | -0.112 |
| ZNF148 (UniProt Q9UQR1) | 0.415 | 0.37 | 0.389 |
| NVL (UniProt O15381) | 0.0113 | -0.0288 | -0.0652 |
| WDR41 (UniProt Q9HAD4) | -0.285 | -0.212 | -0.267 |
| MPP5 (UniProt Q8N3R9) | -0.004 | -0.0805 | -0.0555 |
| MYPN (UniProt Q86TC9) | 0.803 | 0.126 | 0.447 |
